Values of other authors as cited in patent publication US20190192686A1, “TARGETED NANODROPLET EMULSIONS FOR TREATING CANCER” (The University of Louisville Research Foundation,, priority 2016, published 2019).

Molecular target: plasma membrane nucleolin (Homo sapiens, UniProt P19338)
Parameters: key: ^1: Indicates a good plasma membrane nucleolin-binding GRO.; ^2: Indicates a nucleolin control (non-plasma membrane nucleolin binding)
Conditions: superscript designation in Table 1

Chain of plasma membrane nucleolin (P19338 whole entry): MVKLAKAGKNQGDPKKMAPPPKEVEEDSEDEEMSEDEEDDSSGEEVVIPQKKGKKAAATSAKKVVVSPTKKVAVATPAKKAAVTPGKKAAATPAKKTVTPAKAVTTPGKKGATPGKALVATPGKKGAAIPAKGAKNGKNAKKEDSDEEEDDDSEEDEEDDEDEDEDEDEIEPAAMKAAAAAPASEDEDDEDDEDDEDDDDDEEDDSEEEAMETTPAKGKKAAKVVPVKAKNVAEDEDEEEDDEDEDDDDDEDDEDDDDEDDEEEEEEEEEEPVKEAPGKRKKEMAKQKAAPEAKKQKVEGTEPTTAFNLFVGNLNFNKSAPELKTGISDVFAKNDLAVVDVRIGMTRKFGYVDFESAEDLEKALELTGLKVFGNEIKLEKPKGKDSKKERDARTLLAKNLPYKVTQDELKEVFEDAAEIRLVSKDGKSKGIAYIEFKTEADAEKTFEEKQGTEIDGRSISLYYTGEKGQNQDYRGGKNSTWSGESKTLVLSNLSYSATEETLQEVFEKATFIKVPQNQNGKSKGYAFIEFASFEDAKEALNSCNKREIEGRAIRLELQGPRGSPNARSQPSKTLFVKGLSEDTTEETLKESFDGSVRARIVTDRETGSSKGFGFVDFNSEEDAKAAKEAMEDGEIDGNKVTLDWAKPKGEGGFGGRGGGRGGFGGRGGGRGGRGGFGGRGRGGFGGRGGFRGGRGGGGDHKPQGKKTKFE

Substance | plasma membrane nucleolin binding
GRO26B: ggtggtggtg gttgtggtgg tggtgg | GRO26B^1
GRO J: ggggttttgg ggttttgggg ttttgggg (DNA GGGGTTTTGGGGTTTTGGGGTTTTGGGG; listed as DNA, chemistry not fully specified) | GRO J^1
GRO15B: ttgggggggg tgggt (TTGGGGGGGGTGGGT; listed as DNA, chemistry not fully specified) | GRO15B^2
GRO O: cctcctcctc cttctcctcc tcctcc (CCTCCTCCTCCTTCTCCTCCTCCTCC; aptamer; listed as DNA, chemistry not fully specified) | GRO O^2
GRO K: ttggggttgg ggttggggtt gggg (DNA TTGGGGTTGGGGTTGGGGTTGGGG; listed as DNA, chemistry not fully specified) | GRO K^1
GRO P: tggggt | GRO P^2
GRO T: ggggttgggg tgtggggttg ggg (GGGGTTGGGGTGTGGGGTTGGGG; listed as DNA, chemistry not given here) | GRO T^2
GRO Q: gcatgct (GCATGCT; listed as DNA, chemistry not given here) | GRO Q^2
GRO H: ggggttttgg gg (DNA GGGGTTTTGGGG; listed as DNA, chemistry not fully specified) | GRO H^1
GRO R: gcggtttgcg g (GCGGTTTGCGG; listed as DNA, chemistry not given here) | GRO R^2
GRO S: tagg (TAGG; listed as DNA, chemistry not given here) | GRO S^2
GRO M: ggttttggtt ttggttttgg ttttgg (GGTTTTGGTTTTGGTTTTGGTTTTGG; aptamer; listed as DNA, chemistry not fully specified) | GRO M^1
GRO I: gggttttggg (DNA GGGTTTTGGG; listed as DNA, chemistry not fully specified) | GRO I^1
GRO N: tttcctcctc ctccttctcc tcctcctcc (TTTCCTCCTCCTCCTTCTCCTCCTCCTCC; listed as DNA, chemistry not fully specified) | GRO N^2
GRO G: ggttggtgtg gttgg | GRO G^1
